Laboratory results taken from patent US20100286073A1, “COMPOUNDS AND METHODS FOR PHARMACEUTICAL USE” (priority 2007, published 2010).
Entries after “also recorded” stand apart in the source; their conditions may differ.

Legend:
[1] = tested on: human subjects diagnosed with fibromyalgia syndrome; test: Patient history of prior treatment of the fibromyalgia subjects (Examples 1-3); conditions: for side effects of prior prescription analgesics / pain relief by prior prescription analgesics: codeine at high dose; for pain relief by prior prescription analgesics: at best; for pain relief by prior OTC analgesics: codeine at low dose
From the text: (§1) Patient History of Prior Treatment: A patient history was taken. Prior treatments targeting pain relief were as follows.
Prior treatments targeting other symptoms included the following. The subject had taken tegaserod for irritable bowel syndrome. Additional prior therapies included sertraline for depression, and zolpidem for insomnia. The subject has also taken proclorperazine for dizziness.
Prior treatments targeting other symptoms included the following. The subject had taken tegaserod for irritable bowel syndrome. Additional prior therapies included sertraline for depression, and zolpidem for insomnia.
as §1
Prior treatments targeting other symptoms included the following. The subject had taken tegaserod for irritable bowel syndrome. Additional prior therapies included zolpidem, midazolam, zopiclone, and chlorpheniramine for insomnia.

[2] = tested on: human subjects diagnosed with fibromyalgia syndrome; test: Treatment of human subjects diagnosed with fibromyalgia with trimetazidine (Examples 1-4, clinical case reports); assay type: in vivo
Method: A person presented with long-standing complaints (15 years) of widespread pain—headaches, upper and lower back pain, neck pain, elbow and knee pain bilaterally, calf pain bilaterally and jaw pain. General non-specific symptoms were fatigue, symptoms of irritable bowel syndrome (constipation-type), insomnia, cognitive and memory impairment, morning stiffness, dizziness, irritability and depression.
Treatment Regime: The subject was administered trimetazidine (modified release formulation, Vastarel® MR), 35 mg orally, twice daily, originally for treatment of their cardiac condition.
Treatment Regime: The subject was administered trimetazidine (modified release formulation, Vastarel® MR), 35 mg orally, twice daily.
The following is a synopsis of the clinical response of each of eight (8) patients diagnosed with FMS, each of whom received treatment with trimetazidine MR (Vastarel® MR), 35 mg orally, twice daily, for a period of at least four (4) weeks.

[3] = molecular target: long-chain isoform of 3-ketoacyl coenzyme A thiolase (3KCT) (Homo sapiens, UniProt P55084); conditions: thereby reducing fatty acid oxidation; Kantor et al., Circ Res 2000; cited from earlier work
[4] = Examples 1-2, within 72 h (Ex. 1) or 24 h (Ex. 2) of starting 35 mg orally twice daily, patient-reported
[5] = Examples 1-3, within 72 h (Ex. 1) or 24 h (Ex. 2, 3) of starting 35 mg orally twice daily, patient-reported
[6] = Short Term i.e. within 72 hours, trimetazidine MR 35 mg orally twice daily, FMS patient, Example 4
[7] = Short Term i.e. within 72 hours, trimetazidine MR 35 mg orally twice daily, FMS patients, Example 4
[8] = after four (4) months of continuous use, 35 mg orally twice daily
[9] = examination after at least four weeks of trimetazidine MR 35 mg orally twice daily
[10] = examination after four weeks of trimetazidine MR 35 mg orally twice daily

long-chain isoform of 3-ketoacyl coenzyme A thiolase (3KCT), sequence (P55084 34-474): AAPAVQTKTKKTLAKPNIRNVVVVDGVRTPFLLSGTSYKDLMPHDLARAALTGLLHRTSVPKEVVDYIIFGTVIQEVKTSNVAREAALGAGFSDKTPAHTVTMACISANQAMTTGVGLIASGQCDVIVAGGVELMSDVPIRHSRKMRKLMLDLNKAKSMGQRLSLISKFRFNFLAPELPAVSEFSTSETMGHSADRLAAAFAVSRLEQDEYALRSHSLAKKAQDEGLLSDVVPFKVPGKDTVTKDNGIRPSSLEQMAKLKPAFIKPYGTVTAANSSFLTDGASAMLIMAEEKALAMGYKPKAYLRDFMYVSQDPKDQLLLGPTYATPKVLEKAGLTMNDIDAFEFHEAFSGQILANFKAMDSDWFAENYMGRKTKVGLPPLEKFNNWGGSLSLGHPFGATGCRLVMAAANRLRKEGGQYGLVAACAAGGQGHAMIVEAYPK
long-chain isoform of 3-ketoacyl coenzyme A thiolase (3KCT), sequence (P40939 37-763 partner): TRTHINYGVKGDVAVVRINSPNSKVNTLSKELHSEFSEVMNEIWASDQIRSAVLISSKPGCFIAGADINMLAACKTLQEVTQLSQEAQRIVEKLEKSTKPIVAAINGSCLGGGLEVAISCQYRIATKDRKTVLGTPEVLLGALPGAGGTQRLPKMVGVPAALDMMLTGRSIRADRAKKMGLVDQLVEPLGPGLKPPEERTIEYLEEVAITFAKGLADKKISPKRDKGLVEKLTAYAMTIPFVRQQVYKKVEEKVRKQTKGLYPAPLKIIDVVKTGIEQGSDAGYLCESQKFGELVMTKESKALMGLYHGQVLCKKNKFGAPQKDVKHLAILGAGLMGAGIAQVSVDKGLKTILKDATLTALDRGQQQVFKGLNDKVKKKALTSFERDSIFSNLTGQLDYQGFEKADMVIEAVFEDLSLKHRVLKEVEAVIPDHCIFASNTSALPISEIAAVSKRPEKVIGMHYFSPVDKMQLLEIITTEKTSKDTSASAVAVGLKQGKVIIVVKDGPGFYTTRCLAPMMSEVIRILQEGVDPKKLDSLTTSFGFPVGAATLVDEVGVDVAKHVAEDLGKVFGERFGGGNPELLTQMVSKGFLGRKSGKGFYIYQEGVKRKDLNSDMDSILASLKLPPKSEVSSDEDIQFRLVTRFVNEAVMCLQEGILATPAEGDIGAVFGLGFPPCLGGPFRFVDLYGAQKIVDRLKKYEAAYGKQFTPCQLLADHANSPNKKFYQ

Q: With CCOC(=O)C1(c2ccccc2)CCN(C)CC1 [meperidine] as the compound, how does the “side effects of prior prescription analgesics” value (“side effects” for short) [1] read?
A: Its value is “frequently accompanied by unpleasant side effects”.

Q: And the “pain relief by prior prescription analgesics” value [1]?
A: Its value is “mild to moderate and very temporary relief”.

Q: With COc1ccc2c3c1O[C@H]1[C@@H](O)C=C[C@H]4[C@@H](C2)N(C)CC[C@@]341 [codeine] as the compound, how does the “pain relief by prior OTC analgesics” value [1] read?
A: Its value is “no pain relief whatsoever; also recorded: negligible pain relief”.

Q: And the “side effects” value [1]?
A: Its value is “frequently accompanied by unpleasant side effects”.

Q: And the “pain relief by prior prescription analgesics” value [1]?
A: Its value is “mild to moderate and very temporary relief”.

Q: For CC(=O)Nc1ccc(O)cc1 [paracetamol], which “pain relief by prior OTC analgesics” value [1] is on record?
A: Its value is “no pain relief whatsoever; also recorded: negligible pain relief”.

Q: For COc1cccc(C2(O)CCCCC2CN(C)C)c1 (centres unmarked) [tramadol], which “side effects” value [1] is on record?
A: Its value is “frequently accompanied by unpleasant side effects”.

Q: And the “pain relief by prior prescription analgesics” value [1]?
A: Its value is “mild to moderate and very temporary relief”.

Q: With CCN(CC)CC(=O)Nc1c(C)cccc1C [lidocaine] as the compound, how does the “localized pain relief by prior trigger point injections” value ([1]; injections repeated at 2 to 4 week intervals, extremely painful procedures) read?
A: The value was “best localized pain relief”.

Q: For COc1ccc(CN2CCNCC2)c(OC)c1OC [trimetazidine, 1-(2,3,4-trimethyloxybenzyl)piperazine], which “time after commencing therapy at which benefits were first noticed” value ([2]; Example 1, 35 mg orally twice daily) is on record?
A: The value was ≤ 24 h.

Q: What about the level of irritability ([2]; Example 1, within 72 hours of starting 35 mg orally twice daily, patient-reported) of the same compound?
A: The level of irritability was “markedly reduced”.

Q: And the clarity of thoughts [2, 4]?
A: Its clarity of thoughts is “markedly increased”.

Q: What about the “short and long term memory” value [2, 4] of the same compound?
A: The value was “improvement”.

Q: What about the energy levels [2, 5] of the same compound?
A: Its energy levels is “very significantly increased”.

Q: What about the mood [2, 5] of the same compound?
A: Its mood is “very improved”.

Q: What about the “regularity of bowel habits” value [2, 5] of the same compound?
A: Its value is “markedly improved”.

Q: What about the sleep patterns [2, 5] of the same compound?
A: Its sleep patterns is “very significantly improved”.

Q: And the “residual pain after reduction of widespread pain” value ([2]; Examples 1-3, within 72 h (Ex. 1) or 24 h (Ex. 2, 3) of starting treatment)?
A: The value was “minimal residual pain reported at the left medial knee; also recorded: minimal residual pain reported at the left hip; also recorded: residual mild headache”.

Q: And the sense of well-being ([2]; Medium/Long Term, after five (5) or four (4) weeks of daily use)?
A: Its sense of well-being is “increased sense of”.

Q: What about the “sustained improvement of all symptoms” value ([2]; Medium/Long Term, after five (5) weeks of daily use, 35 mg orally twice daily, patient-reported) of the same compound?
A: The value was “dramatic 95%”.

Q: What about the energy levels ([2]; Medium/Long Term, after four (4) weeks of daily use) of the same compound?
A: The energy levels was “sustained increase”.

Q: What about the “sustained improvement of symptoms” value ([2]; Medium/Long Term, after nine (9) weeks of daily use, 35 mg orally twice daily, patient-reported) of the same compound?
A: The value was 90% sustained.

Q: And the “sustained improvement of symptoms” value ([2]; Medium/Long Term, after seven (7) weeks of daily use, 35 mg orally twice daily, patient-reported)?
A: The value was “dramatic 95%”.

Q: And the “sustained improvement of symptoms” value ([2]; Medium/Long Term, after six (6) weeks of daily use, 35 mg orally twice daily, patient-reported)?
A: Its value is “(95%) sustained”.

Q: What about the “Chest Pain” value [2, 6] of the same compound?
A: Its value is “Absence of Chest”.

Q: What about the Memory [2, 6] of the same compound?
A: The Memory was “Improved Memory”.

Q: What about the Nausea [2, 6] of the same compound?
A: Its Nausea is “Absence of Nausea”.

Q: What about the “Nausea and Vomiting” value [2, 6] of the same compound?
A: Its value is “Absence of Nausea”.

Q: And the nervousness [2, 6]?
A: The nervousness was “No Nervousness”.

Q: And the “reduction in IBS and Acid Reflux Symptoms” value [2, 6]?
A: The value was 90% reduction in.

Q: What about the reduction in irritability [2, 6] of the same compound?
A: Its reduction in irritability is 90% reduction in.

Q: And the “reduction in severity of Pre-Menstrual Cramps” value [2, 6]?
A: The value was 70% reduction in.

Q: And the “reduction in symptoms of Irritable Bowel Syndrome” value [2, 6]?
A: The value was 90% reduction in.

Q: What about the “symptoms of Irritable Bowel Syndrome” value [2, 6] of the same compound?
A: The value was “Markedly reduced”.

Q: And the “alertness and clarity of thinking” value [2, 7]?
A: The value was “Increased alertness”.

Q: And the dizziness/dizzy spells [2, 7]?
A: The dizziness/dizzy spells was “Infrequent dizzy; also recorded: Absence of”.

Q: What about the “energy (feeling)” value [2, 7] of the same compound?
A: Its value is “Energetic feeling”.

Q: And the “improved mood and concentration” value [2, 7]?
A: The value was “Significantly”.

Q: And the “improved mood and memory” value [2, 7]?
A: Its value is “Significantly”.

Q: What about the “reduction in widespread pain and trigger point pain” value [2, 7] of the same compound?
A: The value was 90% reduction in.

Q: And the sleep [2, 7]?
A: The sleep was “Consistent restful”.

Q: And the “quality of life at follow-up” value [2, 8]?
A: Its value is “same marked improvement”.

Q: What about the “relapse of symptoms at follow-up” value [2, 8] of the same compound?
A: Its value is “no relapse”.

Q: What about the “quality of life at follow-up” value ([2]; after six (6) months of continuous use, 35 mg orally twice daily) of the same compound?
A: The value was “same marked improvement”.

Q: And the “pain at trigger points at follow-up” value ([2]; after six (6) months of continuous use, in reaction to stress or infections)?
A: The value was “infrequent episodes of pain”.

Q: And the “EXAMINATION FINDINGS: affect” value [2, 9]?
A: The value was “markedly improved”.

Q: And the “EXAMINATION FINDINGS: resolution of trigger point tenderness” value [2, 9]?
A: The value was “Sustained”.

Q: And the “EXAMINATION FINDINGS: affect and energy levels” value [2, 10]?
A: The value was “markedly improved”.

Q: And the “EXAMINATION FINDINGS: improvement in physical appearance” value [2, 10]?
A: Its value is “obvious marked”.

Q: What about the “EXAMINATION FINDINGS: improved energy levels” value ([2]; examination after ten weeks of trimetazidine MR 35 mg orally twice daily) of the same compound?
A: Its value is “Markedly”.

Q: What about the “improvement in all symptoms and signs of fibromyalgia” value ([2]; within 24 hours of starting treatment, 35 mg orally twice daily) of the same compound?
A: The value was “vast improvement”.

Q: And the “reduction in widespread pain” value ([2]; within 24 hours of starting treatment, trimetazidine MR 35 mg orally twice daily, FMS patient, patient-reported)?
A: Its value is 95%.

Q: What about the “improvement in all symptoms and signs of fibromyalgia” value ([2]; within 72 hours of starting treatment, 35 mg orally twice daily) of the same compound?
A: The value was “vast improvement”.

Q: What about the “reduction in widespread pain” value ([2]; within 72 hours of starting treatment, trimetazidine MR (Vastarel MR) 35 mg orally twice daily, FMS patient, patient-reported) of the same compound?
A: The value was 90%.

Q: And the “reduction in widespread pain” value ([2]; within 72 hours of starting treatment, trimetazidine MR (Vastarel MR) 35 mg orally twice daily, FMS patient, patient-reported, listed as Trimetazidine)?
A: Its value is 90% reduction in.

Q: And the “effect on long-chain 3-ketoacyl coenzyme A thiolase (3KCT)” value [3]?
A: The value was “inhibits”.
